Assay results reported in publication PMC6925188, “PBRM1 acts as a p53 lysine-acetylation reader to suppress renal tumor growth” (Nature Communications, 2019).

System: HCT116 cells
Assay: RT-qPCR of p53 targets, HCT116 parental and PBRM1 KO cells
Format: cell-based
Design: PUMA expression / PIDD expression: reference not given here
Details: 50 μM, 24 h
Protocol: Total RNA was extracted from cells using the RNeasy Plus Mini Kit (74136, Qiagen), and the concentration was measured using the NanoDrop ND-1000 system (Thermo Scientific). Reverse transcription was performed using the First Strand cDNA Synthesis Kit (NP100042, Origen) with 0.5 µg total RNA. Real-time PCR was performed with Maxima SYBR Green qPCR Master Mix (K0253, Thermo Scientific) using the Roche LightCycler 480. The primers used for real-time PCR are listed as follows: q-GAPDH-F: […], q-GAPDH-R: […], q-CDKN1A-F: […], q-CDKN1A-R: […], q-MDM2-F: […], q-MDM2-R: […], q-BAX-F: […], q-BAX-R: […], q-PUMA-F: […], q-PUMA-R: […], q-NOXA-F: […], q-NOXA-R: […], q-GADD45a-F: […], q-GADD45a-R: […], q-APAF1-F: […], q-APAF1-R: […], q-BAI1-F: […], q-BAI1-R: […], q-BCL2A1-F: […], q-BCL2A1-R: g[…], q-BTG2-F: […], q-BTG2-R: […], q-CDC25c-F: […], q-CDC25c-R: […], q-FAS-F: […], q-FAS-R: […], q-PIDD-F: […], q-PIDD-R: […], q-RPRM-F: […], q-RPRM-R: […], q-TNFRSF10B-F: […] and q-TNFRSF10B-R: […]. GAPDH was used as an internal control. Data are shown as mean ± SEM for three independent experiments.
Supplementary Figure 4. PBRM1 is required for full p53 transcriptional activity.
a, b. HCT116 parental and PBRM1 KO cells (combination of eight clones) were treated with
(a). RNA was extracted and reverse transcribed from the indicated cells treated with 50 μM
etoposide. […]
p-values were calculated using the paired two -tailed Student’s t-test. c, d. […]

In the case of COc1cc([C@@H]2c3cc4c(cc3[C@@H](O[C@@H]3O[C@@H]5CO[C@@H](C)O[C@H]5[C@H](O)[C@H]3O)[C@H]3COC(=O)[C@H]23)OCO4)cc(OC)c1O [Etoposide], the APAF1 expression (HCT116-PBRM1-KOs, assay 1) was 3.8371, the BAX expression (HCT116-PBRM1-KOs, assay 1) was 1.7963 and the BCL2A1 expression (HCT116-PBRM1-KOs, assay 1) was 19.7667. For the same compound, the BTG2 expression (HCT116-PBRM1-KOs, assay 1) was 11.7942, the CDKN1A expression (HCT116-PBRM1-KOs, assay 1) was 22.8639 and the GADD45A expression (HCT116-PBRM1-KOs, assay 1) was 3.9586. For the same compound, the MDM2 expression (HCT116-PBRM1-KOs, assay 1) was 3.9724, the NOXA expression (HCT116-PBRM1-KOs, assay 1) was 3.0525 and the PIDD expression (HCT116-PBRM1-KOs, assay 1) was 2.3295. It also gave a PUMA expression (HCT116-PBRM1-KOs, assay 1) of 4.8793, an RPRM expression (HCT116-PBRM1-KOs, assay 1) of 2.5491 and an APAF1 expression (HCT116-PBRM1-KOs, assay 2) of 1.6529. For the same compound, the BAX expression (HCT116-PBRM1-KOs, assay 2) was 2.3457, the BCL2A1 expression (HCT116-PBRM1-KOs, assay 2) was 6.9761 and the BTG2 expression (HCT116-PBRM1-KOs, assay 2) was 7.21. For the same compound, the CDKN1A expression (HCT116-PBRM1-KOs, assay 2) was 14.0419, the GADD45A expression (HCT116-PBRM1-KOs, assay 2) was 2.1289 and the MDM2 expression (HCT116-PBRM1-KOs, assay 2) was 5.9039. For the same compound, the NOXA expression (HCT116-PBRM1-KOs, assay 2) was 3.6808, the PIDD expression (HCT116-PBRM1-KOs, assay 2) was 1.4093 and the PUMA expression (HCT116-PBRM1-KOs, assay 2) was 7.235. It also gave an RPRM expression (HCT116-PBRM1-KOs, assay 2) of 2.7797, an APAF1 expression (HCT116-PBRM1-KOs, assay 3) of 1.6644 and a BAX expression (HCT116-PBRM1-KOs, assay 3) of 2.3134. For the same compound, the BCL2A1 expression (HCT116-PBRM1-KOs, assay 3) was 9.2884, the BTG2 expression (HCT116-PBRM1-KOs, assay 3) was 7.1602 and the CDKN1A expression (HCT116-PBRM1-KOs, assay 3) was 10.4953. The GADD45A expression (HCT116-PBRM1-KOs, assay 3) was 3.1241, the MDM2 expression (HCT116-PBRM1-KOs, assay 3) was 5.945 and the NOXA expression (HCT116-PBRM1-KOs, assay 3) was 3.6554. For the same compound, the PIDD expression (HCT116-PBRM1-KOs, assay 3) was 1.4897, the PUMA expression (HCT116-PBRM1-KOs, assay 3) was 3.2117 and the RPRM expression (HCT116-PBRM1-KOs, assay 3) was 1.3828. The APAF1 expression (HCT116, assay 1) was 4.2871, the BAX expression (HCT116, assay 1) was 2.7702 and the BCL2A1 expression (HCT116, assay 1) was 22.8639. It also gave a BTG2 expression (HCT116, assay 1) of 12.7286, a CDKN1A expression (HCT116, assay 1) of 28.6408 and a GADD45A expression (HCT116, assay 1) of 4.4076. It also gave an MDM2 expression (HCT116, assay 1) of 4.6589, an NOXA expression (HCT116, assay 1) of 3.0738 and a PIDD expression (HCT116, assay 1) of 3.0525. For the same compound, the PUMA expression (HCT116, assay 1) was 4.4076, the RPRM expression (HCT116, assay 1) was 3.6301 and the APAF1 expression (HCT116, assay 2) was 2.1372. The BAX expression (HCT116, assay 2) was 2.6851, the BCL2A1 expression (HCT116, assay 2) was 13.3173 and the BTG2 expression (HCT116, assay 2) was 8.1398. For the same compound, the CDKN1A expression (HCT116, assay 2) was 17.6304, the GADD45A expression (HCT116, assay 2) was 2.5584 and the MDM2 expression (HCT116, assay 2) was 5.7624. The NOXA expression (HCT116, assay 2) was 3.8683, the PIDD expression (HCT116, assay 2) was 2.0705 and the PUMA expression (HCT116, assay 2) was 5.3332. The RPRM expression (HCT116, assay 2) was 2.9362, the APAF1 expression (HCT116, assay 3) was 2.021 and the BAX expression (HCT116, assay 3) was 2.7226. It also gave a BCL2A1 expression (HCT116, assay 3) of 11.9548, a BTG2 expression (HCT116, assay 3) of 8.4269 and a CDKN1A expression (HCT116, assay 3) of 15.6707. It also gave a GADD45A expression (HCT116, assay 3) of 3.0105, an MDM2 expression (HCT116, assay 3) of 5.4264 and an NOXA expression (HCT116, assay 3) of 4.6765. It also gave a PIDD expression (HCT116, assay 3) of 1.9453, a PUMA expression (HCT116, assay 3) of 3.1939 and an RPRM expression (HCT116, assay 3) of 2.0097.
